# In patent publication US9963434B2, “N-arylmethyl sulfonamide negative modulators of NR2A” (LUC THERAPEUTICS, priority 2013, dated 2018):
# Like-named read-outs stand apart in the source and are kept apart here.
# Target: NR1/NR2A (Homo sapiens (Human), UniProt Q05586+Q12879)
# Assay: FDSS Ca2+ influx inhibition assay in HEK293 cells expressing NR1/NR2A
# Type: cell-based
# Conditions: 3 μM glutamate, 3 μM glycine, 1 mM Ca2+
# How it was run: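 Fluo-8-loaded HEK293 NR1/NR2A cells preincubated 10 min with compound at 10 μM final (0.1% DMSO) in Ca2+/Mg2+-free HBSS with 20 mM HEPES. Stimulated with 3 μM glutamate, 3 μM glycine, 1 mM Ca2+; FDSS recording for 3 min, end/baseline fluorescence ratio compared with MK801.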
# [1] = inhibition relative to MK801, read-out: NR2A IC50
# Chain of NR1/NR2A (Q12879 23-1464, other chains not shown): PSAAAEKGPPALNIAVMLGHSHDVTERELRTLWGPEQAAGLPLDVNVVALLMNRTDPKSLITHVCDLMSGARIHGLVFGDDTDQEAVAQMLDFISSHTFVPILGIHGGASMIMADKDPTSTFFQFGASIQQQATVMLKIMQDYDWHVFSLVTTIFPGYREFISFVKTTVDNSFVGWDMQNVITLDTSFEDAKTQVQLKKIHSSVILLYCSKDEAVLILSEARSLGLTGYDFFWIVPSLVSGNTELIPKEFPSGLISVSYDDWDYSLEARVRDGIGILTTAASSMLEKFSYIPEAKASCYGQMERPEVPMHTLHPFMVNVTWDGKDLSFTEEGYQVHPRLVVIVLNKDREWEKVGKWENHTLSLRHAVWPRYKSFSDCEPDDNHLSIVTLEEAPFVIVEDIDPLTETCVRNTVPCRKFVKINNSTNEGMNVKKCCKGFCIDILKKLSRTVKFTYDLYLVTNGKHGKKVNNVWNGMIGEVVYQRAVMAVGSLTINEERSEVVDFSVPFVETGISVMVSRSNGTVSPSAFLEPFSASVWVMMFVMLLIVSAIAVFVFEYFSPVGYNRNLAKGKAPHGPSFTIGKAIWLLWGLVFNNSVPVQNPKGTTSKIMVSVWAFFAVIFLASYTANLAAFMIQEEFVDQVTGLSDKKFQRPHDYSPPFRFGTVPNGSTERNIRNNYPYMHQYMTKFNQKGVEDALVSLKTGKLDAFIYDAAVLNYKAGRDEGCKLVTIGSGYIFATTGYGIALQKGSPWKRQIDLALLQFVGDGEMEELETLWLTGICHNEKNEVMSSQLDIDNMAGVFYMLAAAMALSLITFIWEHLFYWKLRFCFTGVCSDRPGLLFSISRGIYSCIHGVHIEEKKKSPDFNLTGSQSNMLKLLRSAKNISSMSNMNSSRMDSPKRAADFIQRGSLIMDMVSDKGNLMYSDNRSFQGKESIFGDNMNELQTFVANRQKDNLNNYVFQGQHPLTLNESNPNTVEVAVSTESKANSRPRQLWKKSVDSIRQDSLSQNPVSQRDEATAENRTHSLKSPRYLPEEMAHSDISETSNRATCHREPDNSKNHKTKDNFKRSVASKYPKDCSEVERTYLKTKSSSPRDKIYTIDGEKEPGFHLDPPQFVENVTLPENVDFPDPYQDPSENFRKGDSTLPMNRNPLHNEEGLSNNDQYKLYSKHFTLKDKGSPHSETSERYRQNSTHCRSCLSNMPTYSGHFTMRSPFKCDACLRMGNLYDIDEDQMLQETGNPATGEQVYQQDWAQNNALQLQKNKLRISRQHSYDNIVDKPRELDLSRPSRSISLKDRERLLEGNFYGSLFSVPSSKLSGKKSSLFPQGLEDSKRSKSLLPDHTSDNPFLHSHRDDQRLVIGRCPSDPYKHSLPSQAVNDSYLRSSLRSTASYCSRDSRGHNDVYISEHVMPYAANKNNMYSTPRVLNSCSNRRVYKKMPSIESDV
SMILES,IC50 [1],IC50 (read-out: Binned Activity)
"Cc1ncc(CNC(=O)c2ccc(CNS(=O)(=O)c3ccc(F)c(Cl)c3)nn2)s1 [6-(3-chloro-4-fluorobenzenesulfon-amidomethyl)-N-[(2-methyl-1,3-thiazol-5-yl)methyl]pyridazine-3-carboxamide]",10 µM,> 10 µM
"Cc1ncsc1CNC(=O)c1ccc(CNS(=O)(=O)c2ccc(F)c(Cl)c2)nc1 [6-(3-chloro-4-fluorobenzenesulfon-amidomethyl)-N-[(4-methyl-1,3-thiazol-5-yl)methyl]pyridine-3-carboxamide]",10 µM,> 10 µM
Cc1cnc(CNC(=O)c2ccc(CNS(=O)(=O)c3ccc(F)c(Cl)c3)nn2)cn1 [6-(3-chloro-4-fluorobenzenesulfon-amidomethyl)-N-[(5-methylpyrazin-2-yl)methyl]pyridazine-3-carboxamide],10 µM,> 10 µM
Cc1ccc(CNC(=O)c2ccc(CNS(=O)(=O)c3ccc(F)c(Cl)c3)nc2)s1 [6-(3-chloro-4-fluorobenzenesulfon-amidomethyl)-N-[(5-methylthiophen-2-yl)methyl]pyridine-3-carboxamide],10 µM,> 10 µM
COc1ccc(CNC(=O)c2ccc(CNS(=O)(=O)c3ccc(F)c(Cl)c3)nc2)cn1 [6-(3-chloro-4-fluorobenzenesulfon-amidomethyl)-N-[(6-methoxypyridin-3-yl)methyl]pyridine-3-carboxamide],10 µM,> 10 µM
Cc1cccc(CNC(=O)c2ccc(CNS(=O)(=O)c3ccc(F)c(Cl)c3)nc2)n1 [6-(3-chloro-4-fluorobenzenesulfon-amidomethyl)-N-[(6-methylpyridin-2-yl)methyl]pyridine-3-carboxamide],10 µM,> 10 µM
"Cc1nc(C)c(CNC(=O)c2ccc(CNS(=O)(=O)c3ccc(F)c(Cl)c3)nn2)s1 [6-(3-chloro-4-fluorobenzenesulfon-amidomethyl)-N-[(dimethyl-1,3-thiazol-5-yl)methyl]pyridazine-3-carboxamide]",10 µM,> 10 µM
O=C(NCc1ncc(C(F)(F)F)cc1Cl)c1ccc(CNS(=O)(=O)c2ccc(F)c(Cl)c2)nc1 [6-(3-chloro-4-fluorobenzenesulfon-amidomethyl)-N-{[3-chloro-5-(trifluoromethyl)pyridin-2-yl]methyl}pyridine-3-carboxamide],10 µM,> 10 µM
"Cc1ncc(CNC(=O)c2ccc(CNS(=O)(=O)c3cn(C)cn3)cn2)s1 [N-[(2-methyl-1,3-thiazol-5-yl)methyl]-5-(1-methyl-1H-imidazole-4-sulfonamidomethyl) pyridine-2-carboxamide]",10 µM,> 10 µM
"Cc1ncc(CNC(=O)c2ccc(CNS(=O)(=O)c3ccn(C)n3)cn2)s1 [N-[(2-methyl-1,3-thiazol-5-yl)methyl]-5-(1-methyl-1H-pyrazole-3-sulfonamidomethyl) pyridine-2-carboxamide]",10 µM,> 10 µM
"Cc1ncc(CNC(=O)c2cnc(CNS(=O)(=O)c3ccc(Oc4ccccc4)nc3)cn2)s1 [N-[(2-methyl-1,3-thiazol-5-yl)methyl]-5-(6-phenoxypyridine-3-sulfonamidomethyl) pyrazine-2-carboxamide]",10 µM,> 10 µM
"Cc1ncc(CNC(=O)c2ccc(CNS(=O)(=O)c3ccc(Oc4ccccc4)nc3)cn2)s1 [N-[(2-methyl-1,3-thiazol-5-yl)methyl]-5-(6-phenoxypyridine-3-sulfonamidomethyl) pyridine-2-carboxamide]",10 µM,> 10 µM
"Cc1ncc(CNC(=O)c2ccc(CNS(=O)(=O)c3cccc4cccnc34)cn2)s1 [N-[(2-methyl-1,3-thiazol-5-yl)methyl]-5-(quinoline-8-sulfonamidomethyl) pyridine-2-carboxamide]",10 µM,> 10 µM
"Cc1ncc(CNC(=O)c2cnc(CNS(=O)(=O)c3cccs3)cn2)s1 [N-[(2-methyl-1,3-thiazol-5-yl)methyl]-5-(thiophene-2-sulfonamidomethyl) pyrazine-2-carboxamide]",–,1 to 10 µM
"Cc1ncc(CNC(=O)c2ccc(CNS(=O)(=O)c3ccc(C(F)(F)F)cc3)cn2)s1 [N-[(2-methyl-1,3-thiazol-5-yl)methyl]-5-[4-(trifluoromethyl)benzene-sulfonamidomethyl] pyridine-2-carboxamide]",10 µM,> 10 µM

# Second part, the molecule after the results:
IC50 [1],IC50 (read-out: Binned Activity),SMILES
10 µM,> 10 µM,COc1cccc(CNC(=O)c2ccc(CNS(=O)(=O)c3ccc(F)c(Cl)c3)nn2)c1 [6-(3-chloro-4-fluorobenzenesulfon-amidomethyl)-N-[(3-methoxyphenyl)methyl] pyridazine-3-carboxamide]
10 µM,> 10 µM,COc1ccc(CNC(=O)c2ccc(CNS(=O)(=O)c3ccc(F)c(Cl)c3)nn2)cc1 [6-(3-chloro-4-fluorobenzenesulfon-amidomethyl)-N-[(4-methoxyphenyl)methyl] pyridazine-3-carboxamide]
10 µM,> 10 µM,COc1ccc(CNC(=O)c2ccc(CNS(=O)(=O)c3ccc(F)c(Cl)c3)nc2)cc1 [6-(3-chloro-4-fluorobenzenesulfon-amidomethyl)-N-[(4-methoxyphenyl)methyl] pyridine-3-carboxamide]
10 µM,> 10 µM,"Cc1csc(CNC(=O)c2ccc(CNS(=O)(=O)c3ccc(F)c(Cl)c3)nc2)n1 [6-(3-chloro-4-fluorobenzenesulfon-amidomethyl)-N-[(4-methyl-1,3-thiazol-2-yl)methyl]pyridine-3-carboxamide]"
10 µM,> 10 µM,"Cc1ncsc1CNC(=O)c1ccc(CNS(=O)(=O)c2ccc(F)c(Cl)c2)nn1 [6-(3-chloro-4-fluorobenzenesulfon-amidomethyl)-N-[(4-methyl-1,3-thiazol-5-yl)methyl]pyridazine-3-carboxamide]"
10 µM,> 10 µM,Cc1ccncc1CNC(=O)c1ccc(CNS(=O)(=O)c2ccc(F)c(Cl)c2)nn1 [6-(3-chloro-4-fluorobenzenesulfon-amidomethyl)-N-[(4-methylpyridin-3-yl)methyl]pyridazine-3-carboxamide]
–,1 to 10 µM,Cc1ccncc1CNC(=O)c1ccc(CNS(=O)(=O)c2ccc(F)c(Cl)c2)nc1 [6-(3-chloro-4-fluorobenzenesulfon-amidomethyl)-N-[(4-methylpyridin-3-yl)methyl]pyridine-3-carboxamide]
10 µM,> 10 µM,"Cc1nnc(CNC(=O)c2ccc(CNS(=O)(=O)c3ccc(F)c(Cl)c3)nc2)o1 [6-(3-chloro-4-fluorobenzenesulfon-amidomethyl)-N-[(5-methyl-1,3,4-oxadiazol-2-yl)methyl]pyridine-3-carboxamide]"
10 µM,> 10 µM,"Cc1nnc(CNC(=O)c2ccc(CNS(=O)(=O)c3ccc(F)c(Cl)c3)nc2)s1 [6-(3-chloro-4-fluorobenzenesulfon-amidomethyl)-N-[(5-methyl-1,3,4-thiadiazol-2-yl)methyl]pyridine-3-carboxamide]"
–,0.1 to 1 µM,Cc1cnc(CNC(=O)c2ccc(CNS(=O)(=O)c3ccc(F)c(Cl)c3)nc2)cn1 [6-(3-chloro-4-fluorobenzenesulfon-amidomethyl)-N-[(5-methylpyrazin-2-yl)methyl]pyridine-3-carboxamide]
10 µM,> 10 µM,"Cc1nc(C)c(CNC(=O)c2ccc(CNS(=O)(=O)c3ccc(F)c(Cl)c3)nc2)s1 [6-(3-chloro-4-fluorobenzenesulfon-amidomethyl)-N-[(dimethyl-1,3-thiazol-5-yl)methyl]pyridine-3-carboxamide]"
10 µM,> 10 µM,O=C(NCc1ncccc1C(F)(F)F)c1ccc(CNS(=O)(=O)c2ccc(F)c(Cl)c2)nc1 [6-(3-chloro-4-fluorobenzenesulfon-amidomethyl)-N-{[3-(trifluoromethyl)pyridin-2-yl]methyl}pyridine-3-carboxamide]
–,1 to 10 µM,"Cc1ncc(CNC(=O)c2ccc(CNS(=O)(=O)c3cccs3)cn2)s1 [N-[(2-methyl-1,3-thiazol-5-yl)methyl]-5-(thiophene-2-sulfonamidomethyl) pyridine-2-carboxamide]"
10 µM,> 10 µM,"Cc1ncc(CNC(=O)c2cnc(CNS(=O)(=O)c3ccsc3)cn2)s1 [N-[(2-methyl-1,3-thiazol-5-yl)methyl]-5-(thiophene-3-sulfonamidomethyl) pyrazine-2-carboxamide]"
10 µM,> 10 µM,"Cc1ncc(CNC(=O)c2ccc(CNS(=O)(=O)c3ccsc3)cn2)s1 [N-[(2-methyl-1,3-thiazol-5-yl)methyl]-5-(thiophene-3-sulfonamidomethyl) pyridine-2-carboxamide]"
10 µM,> 10 µM,"Cc1ncc(CNC(=O)c2ccc(CNS(=O)(=O)c3ccc(-c4csnn4)cc3)cn2)s1 [N-[(2-methyl-1,3-thiazol-5-yl)methyl]-5-[4-(1,2,3-thiadiazol-4-yl)benzenesulfonamido-methyl]pyridine-2-carboxamide]"
10 µM,> 10 µM,"Cc1ncc(CNC(=O)c2ccc(CNS(=O)(=O)c3ccc(C(F)(F)F)nc3)cn2)s1 [N-[(2-methyl-1,3-thiazol-5-yl)methyl]-5-[6-(trifluoromethyl)pyridine-3-sulfonamidomethyl] pyridine-2-carboxamide]"
10 µM,> 10 µM,O=C(NCc1ccc(Cl)c(F)c1)c1ccc(CNS(=O)(=O)c2ccc(F)c(Cl)c2)cn1 [N-[(4-chloro-3-fluorophenyl)methyl]-5-(3-chloro-4-fluorobenzenesulfon-amidomethyl)pyridine-2-carboxamide]
